US20140348748A1, “BETA-AMYLOID IMAGING AGENTS, METHODS OF MANUFACTURE, AND METHODS OF USE THEREOF” (priority 2011, published 2014)

Assays:
[1] = target: beta-amyloid plaques in AD brain tissue (Homo sapiens, UniProt P05067); assay: In vitro binding assay: competitive displacement of [3H]6-OH-BTA-1 in AD brain homogenate; conditions: for Ki: [3H]6-OH-BTA-1 as reference radioligand, AD brain tissue
Description: AD brain tissue was homogenized at 1:500 in PBS, and 800 μL suspension was used in each tube. [^3H]6-OH-BTA-1 with a concentration of 1 mCi/mL stock solution was diluted using ethanol to give an intermediate solution of 1 μCi/100 μL, which was further diluted using PBS to result in a dilute stock solution of 2.7×10^−2 μCi/100 μL, and 100 μL was used in each tube (2 vials with 100 μL of [^3H]6-OH-BTA-1 each and scintillation fluid as references). Cold 6-OH-BTA-1 or other displacer was dissolved in ethanol to result in a stock solution of 1×10^−3 M, which was further diluted using PBS or ethanol to result in solutions with concentrations ranging from 1×10^−5 to 10^−10 M, and 100 μL was used in each tube. After assembly, the tubes were vortexed, and incubated for 3 hrs at room temperature. After separation using a cell harvester, the filter paper (GF/B filter paper pretreated with 0.5% polyimine solution) was washed with 10% ethanol in PBS (3×3 mL). The filters were placed into 20 mL glass vials and 10 mL scintillation fluid each was added. After overnight incubation, the samples were counted. The data were analyzed using GraphPad Prism 4 or KaleidaGraph 3.6. […]
Some lipophilic ligands required ethanol in the medium to increase their solubility and to effect displacement of reference radioligand. […] This displacement curve was also analyzed using a homologous displacement mathematical model to extract the Bmax of the amyloid plaques. The measured Bmax is linear with the amount of amyloid used in the experiment. The ratio between Bmax and the amount of Aβ1-42 monomer measured by ELISA is about 1:2, somewhat less than that reported previously. […]
In this table, Ki is a measure (in nM units) of the binding affinity of the compound toward beta-amyloid plaques in AD brain tissue, measured through a competitive radioligand displacement in vitro assay using [^3H]6-OH-BTA-1 as the reference radioligand. The lipophilicity of the compound is represented by c Log D7.4 which is calculated through a software package (ACD/Log D version 8.0) at pH=7.4, a close mimic of physiological conditions. […]

[2] = Evaluation of radioligands in monkey in vivo with PET; set-up: species or system rhesus monkey; conditions: for brain uptake and washout (PET time-activity curves): intravenous, 18F-labelled
Description: A male rhesus monkey (15 kg) was initially immobilized with ketamine (15 mg/kg) and subsequently anesthetized with isoflurane (1.5%) for the duration of the experiment. The monkey was placed prone in the PET camera (HRRT, Siemens/CPS, Knoxyille, Tenn., USA). A fixation device was used to secure the monkey's head during scanning. A urinary catheter was inserted and clamped so that the activity overlaying the bladder represented the total urinary excretion during the scan. Electrocardiogram, body temperature, heart and respiration rates were measured throughout the experiment. Body temperature was controlled and monitored by a forced-air temperature management unit (Bair Hugger Model 505; Arizant Healthcare Inc.; MN, USA). The scanner consisted of eight flat panel detectors with a transaxial and axial coverage of 31.2 cm and 25.2 cm, respectively. The scanner is also equipped with dual-layered phoswich detector allowing depth-of-interaction. Dynamic PET scans were acquired in 64-bit list mode format, following the intravenous administration of Compound 1.6 (2.9 mCi). The scan lasted for 2 hours containing 33 frames with duration ranging from 30 seconds to 5 minutes. Data were reconstructed into a 256×256×207 image matrix (voxel size 1.21×1.21×1.23 mm), using a 3D list mode OSEM algorithm. The reconstructed image resolution was 2.5 mm. Transmission scan was acquired with a rotating ^137Cs point source for 6 minutes and used to correct for attenuation. A model-based scatter correction was applied. Tomographic images were analyzed with PMOD 2.6. Time activity curves (FIGS. 4-6) were calculated in % SUV for volume of interest (VOIs), defined by co-registration with MRI (see below), and compared for uptake and washout between different brain regions.
Co-registration of PET Data with MRI. All frames of the original reconstructed PET data were summed and then co-registered to a T1-weighted magnetic resonance (MR) image acquired separately on a 1.5 T Signa MR scanner (GE Medical Systems) with image analysis software MEDx (Sensor Systems Inc.; Sterling, Va., U.S.A.). The summed PET image was fused with the co-registered MR image with an image fusion tool in PMOD. Several VOIs for the source organs were then manually defined on this fused image with anatomical structures identified on the MR image.

[3] = tested on: amyloid plaques in AD brain tissue slides; assay: Autoradiography on post mortem human brain tissue slides; format: binding; conditions: for binding in AD brain tissue slides (autoradiography): amyloid-loaded gray matter region; for radioactivity on healthy brain tissue (autoradiography): normal control brain tissue slides
Description: Coronal sections of cerebrum from a confirmed case of AD (person, postmortem interval (PMI) 47.5 hours) and a normal control (person, PMI 28.5 hours) were frozen rapidly in an equal mixture of dry ice and isopentane, sealed in a plastic bag and stored at −76° C. before sectioning. Frozen blocks of the medial temporal lobe (hippocampal region) were sectioned at a thickness of 14 μm, mounted on gelatin-coated glass slides, dried and stored under desiccant at −76° C. Before use, slide-mounted tissue sections were removed from the freezer, thawed at room temperature for 20 min, and air-dried. Compounds 1.6, 1.5 and 1.4 (1.0 mg) were dissolved in DMSO (3.529 mL) resulting in a stock solution of 1 mM, which was then further diluted with DMSO to 0.1 mM and then diluted with PBS to 1 μM. The AD tissue and normal tissue slides were pretreated with either a stock solution of Compounds 1.6, 1.5, and 1.4 or PBS for 20 min at room temperature. All slides were incubated for 20 min at room temperature in [^11C]PIB formulation solution (0.3 mCi). They were then dipped in ethanol for 5 min. The slides were dried on a hot plate with a stream of cold air and placed in a cassette with the exposed sides facing up. The phosphor imaging plate was held with the blue side down. The entire cassette was placed in the dark at room temperature overnight for ^11C-labeling. Digital autoradiography was acquired using a FUJI BAS 5000 phosphorimager (FUJI, Tokyo, Japan) with a resolution of 25 μm.

[4] = after intravenous injection into rodent or monkey; cited from earlier work

beta-amyloid plaques in AD brain tissue, sequence (P05067 672-711 limits assumed): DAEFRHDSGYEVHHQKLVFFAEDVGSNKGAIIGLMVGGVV

Row | Ki [1] [nM] | binding in AD brain tissue slides (autoradiography) [3] | Structure (SMILES) | brain uptake and washout (PET time-activity curves) ([2]; normal male rhesus monkey) | radioactivity on healthy brain tissue (autoradiography) [3] | SUV (standardized uptake value) of radioactivity in brain [4] | other results
1 | 20 | clear displaceable binding | CNc1ccc(-c2nc3ccc(O)cc3s2)nc1F [Compound 1.6, 2-(6-Fluoro-5-(methylamino)pyridin-2-yl)benzo[d]thiazol-6-ol] | entered the brain very well and washed out fast | no radioactivity was observed | – | pharmacokinetics compared among the three radioligands ([2]; normal male rhesus monkey, PET): most promising pharmacokinetics; time to uniform distribution of radioactivity after injection ([2]; normal monkey, PET): less than 1 hour; binding with amyloid plaques from autoradiography ([3]; summary statement): specific binding
2 | 10 | clear displaceable binding | CNc1ccc(-c2nc3ccc(OC)cc3s2)nc1F [Compound 1.5, 2-Fluoro-6-(6-methoxybenzo[d]thiazol-2-yl)-N-methylpyridin-3-amine] | entered the brain very well and washed out fast | no radioactivity was observed | – | –
3 | – | – | CN(CCF)c1ccc(-c2cn3cc(I)ccc3n2)cc1 [[^18F]FEM-IMPY, N-(2-fluoroethyl)-4-(6-iodo-H-imidazo[1,2-a]pyridin-2-yl)-N-methylbenzeneamine] | – | – | about 160 % I.D. kg/g | –
4 | – | – | CNc1ccc(-c2nc3ccc(O)cc3s2)cc1 [Compound 6-OH-BTA-1, 2-[4-(methylamino)phenyl]-6-hydroxybenzothiazole, reference compound] | – | – | – | displacement of reference radioligand ([1]; [3H]6-OH-BTA-1 displaced by non-radioactive ligand, isolated amyloid plaques): > 95%
5 | – | – | CN(CCC[18F])c1ccc(-c2cn3cc(I)ccc3n2)cc1 [[^18F]FPM-IMPY] | – | – | about 160 % I.D. kg/g | –
